Experimental data taken from paper PMC11413854, “Reversible Control of Native GluN2B-Containing NMDA Receptors with Visible Light” (ACS Chemical Neuroscience, 2024).

Tested on: cultured cortical neurons at DIV 14
Assay: NMDA excitotoxicity test, neuronal survival by MTT
Format: cell-based, mouse
Details: for neuronal survival: 5 µM inhibitor + 100 µM NMDA + 10 µM glycine; for % of survival, Mean: compound 5µM with NMDA 100µM, MTT A(540 nm) normalized to control (100) and NMDA alone (0)
From the text: We first investigated whether OptoNAM-3 could be used in the context of a patho-physiological process related to GluN1/GluN2B receptors. Overactivation of NMDARs induced by tonic exposure to glutamate or NMDA is well-known to trigger neuronal death.[6] GluN1/GluN2B receptors are thought to be the major player of this neurotoxicity, and GluN1/GluN2B antagonists have proven to be potent neuroprotectants in vitro and in vivo.[5],[15] To test the neuroprotective activity of OptoNAM-3 and its photodependence of action, we performed a protocol of excitotoxicity based on exposure to NMDA (100 μM) of cultured cortical neurons at DIV 14,[15] in the presence of OptoNAM-3. […] OptoNAM-3 in the dark, at a concentration of 5 μM, induced, like ifenprodil, an ∼50% increase in cell survival (Figure S4). […] OptoNAM-3 is therefore able to promote cell survival in neuron cultures in a photodependent manner.
Mice were housed in the IBENS rodent central facility duly accredited by the French Ministry of Agriculture. All experiments were performed in compliance with French and European regulations on care and protection of laboratory animals (EU Directive 2010/63, French Law 2013–118, February 6, 2013), and were approved by local ethics committees and by the French Ministry of Research and Innovation (authorization numbers #05137.02, APAFIS #28867-2020121814485893). Dissociated cultures of cortical neurons were prepared from mouse embryos at E18 as described previously.[84] After removing meninges, cortices were placed in ice-cold HBSS solution. Cell dissociation was performed individually for cortices of each embryo. Cortices were incubated in 2.5% trypsin at 37 °C for 7 min, rinsed three times with 37 °C phosphate buffer saline, and finally suspended in plating medium (Neurobasal Medium, supplemented with 0.5 mM L-glutamine, 1% B27 supplement, and penicillin/streptomycin). The neurons were further dissociated by trituration, and cells were plated on poly-D-lysine coated coverslips in 24-well culture dishes at a density of 3 × 10^5 cells per well for the excitotoxicity test and that of 1 × 10^5 cells per well for patch clamp experiments. Cultures were incubated at 37 °C in a humidified atmosphere of 5% CO2. Cells were fed by changing 1/2 medium to fresh Neurobasal medium every 4 days. For the excitotoxicity experiments, after 5 days in vitro, growth of non-neuronal cells was halted by a 24 h exposure to FDX ([…] 5-fluoro-2′-deoxyuridine). The cultures were used for experiments after 6 to 14 days in vitro (DIV6–8 for patch clamp experiments and DIV14 for excitotoxicity tests).
Excitotoxicity tests were performed 14 days after the culturing step as described in ref[15]. Just before the experiments, the neuronal medium was changed and the neurons incubated in the external patch recording solution (see above). Two replicates of 24 well plates containing cultured cortical neurons were exposed to the same 4 conditions, in which the following compounds were added to the medium: (1) glycine (10 μM) alone (control); (2) glycine (10 μM) + NMDA (100 μM); (3) glycine (10 μM) + NMDA (100 μM) + 5 μM ifenprodil; and (4) glycine (10 μM) + NMDA (100 μM) + 5 μM trans-OptoNAM-3 (dark). One of the two plates was exposed to UV light (Jena analytic US, UVP Hand-held UV lamp UVGL-58, power ∼1 mW) for 2 min. The two plates were then put back in the 37 °C incubator for 10 min. Agonist exposure was terminated by washing out the exposure solution with conditioned Neurobasal medium, prior to returning the dishes to the incubator for 24 h before assessment of neuronal death.
Overall neuronal cell death was determined 24 h after NMDA exposure by the MTT test. Mitochondrial and cytosolic dehydrogenases of living cells reduce the yellow tetrazolium salt (MTT) to produce a purple formazan dye that can be detected spectrophotometrically.[85] […]

Compound: c1ccc(/N=N/c2ccc(CCNc3ccncc3)cc2)cc1 [OptoNAM-3, (E)-N-(4-(Phenyldiazenyl)phenethyl)pyridin-4-amine]
- neuronal survival (2 min UV (365 nm), normalized to control and NMDA): 35%
- neuronal survival (dark, normalized to control (100%) and NMDA (0%)): 50%
- % of survival, Mean (Dark): 48.677%
- % of survival, Mean (UV): 36.192%
